From patent US20090258869A1, “METHODS AND COMPOUNDS FOR TREATMENT OR PREVENTION OF SUBSTANCE-RELATED DISORDERS” (The Regents of the University of California, priority 2008, published 2009)

How the values were obtained:
[1] = general statement, no test described; cited from earlier work
animals = details: literature; cited from earlier work
[2] = tested on: Tyrosine hydroxylase (TH); experiment: TH protein levels (immunoreactivity) by Western blot in ethanol-treated SH-SY5Y cells; type: cell-based, human
Method: (§1) Cell culture. […] MEM nonessential amino acid solution (Invitrogen).
(§2) Treatments. Cells were treated with ethanol for 12-48 h in low serum media by replacing the media with ethanol every 12 h. […] PI-PLC was incubated with cells at a concentration of 0.3 u/ml for 1 h as described previously (1). Anti-GDNF neutralizing antibodies were dissolved in PBS and were used at a concentration of 10 μg/ml.
(§3) Western blot and immunoprecipitation. Cells were collected and lysed in RIPA buffer plus protease and phosphatase inhibitor cocktails for Western blot and immunoprecipitation as described previously (1,30). Briefly, 15 μg of each homogenate was subjected to an SDS-PAGE gel and blotted on a nitrocellulose membrane for Western blot analysis with anti-TH antibody or other primary antibodies, followed by reprobing with anti-Actin antibody. Alternatively, 500 μg of each homogenate was incubated with 5 μg of anti-TH, anti-HSP90 or anti-Akt antibodies in TBS-T buffer overnight at 4° C.1 followed by a 2-h incubation with Protein G agarose beads. Immunoprecipitates were separated on an SDS-PAGE gel for Western blot analysis.
(§4) Quantification and statistical analysis.

TH-Hsp90 association = experiment: Co-immunoprecipitation of TH with Hsp90 in SH-SY5Y cells; type: cell-based, human; details: 100 mM ethanol 24 h
Method: Treatments. […] PI-PLC was incubated with cells at a concentration of 0.3 u/ml for 1 h as described previously (1). Anti-GDNF neutralizing antibodies were dissolved in PBS and were used at a concentration of 10 μg/ml.

[3] = tested on: Tyrosine hydroxylase (TH); experiment: Pulse-chase analysis of 35S-labeled TH protein stability in SH-SY5Y cells; type: cell-based, human
Method: as §1
Pulse-chase analysis. 24 h after ethanol treatment, cells were labeled following a pulse-chase procedure as described previously (31) with modifications. Briefly, cells were incubated with methionine/cystine-free DMEM (Invitrogen) containing 1% dialyzed FBS for 1 h and then labeled in the Met/Cysfree medium containing 25 μCi of Amersham Redivue Pro-Mix L-[35S] in vitro Cell Labeling Mix per ml for 3 h. Dialysis of FBS was performed against the Met/Cys-free medium overnight. After labeling, cells were washed twice with the normal medium and chased in the normal medium without ethanol for 2-8 h before homogenizing as described above. Homogenates were centrifuged and protein concentrations of the supernatants were determined. An equal amount of protein from each sample was immunoprecipitated with anti-TH antibody and separated by electrophoresis on an 8% SDS gel. Autoradiography was performed by exposure of the dried gels to Amersham Storage Phosphor Screen and visualization of radioactive signals using the Typhoon 9410 Variable Mode Imager (GE Healthcare).
as §4

[4] = tested on: Akt kinase and Hsp90 association; details: 100 mM ethanol 24 h
Hsp90 = Hsp90 protein levels by Western blot in SH-SY5Y cells; type: cell-based, human
Method: as §1, §2, §3, §4

TH mRNA = details: 100 mM ethanol 12 h or 24 h
GDNF gene expression = details: in vitro in SH-SY5Y cells and in the midbrain region containing the VTA in vivo; previously reported; cited from earlier work
[5] = 100 mM ethanol 24 h, 25 ng/ml GDNF added for the last 12 h

In the case of `CO[C@H]1/C=C\C=C(/C)C(=O)NC2=CC(=O)C(NCCN(C)C)=C(C[C@@H](C)C[C@H](OC)[C@H](O)[C@@H](C)/C=C(\C)[C@@H]1OC(N)=O)C2=O` [17-DMAG, 17-(2 dimethylaminoethyl)amino-17-desmethoxy-geldanamycin], the water solubility [1] is given as “more soluble”.

In the case of `COC1=C2C[C@@H](C)C[C@H](OC)[C@H](O)[C@@H](C)/C=C(\C)[C@H](OC(N)=O)[C@@H](OC)/C=C\C=C(/C)C(=O)NC(=CC1=O)C2=O` [GA, Geldanamycin], the water solubility [1] is given as “less than ideal”.

For `O=C1CC[C@@]2(O)[C@H]3Cc4ccc(O)c5c4[C@@]2(CCN3CC2CC2)[C@H]1O5` [Naltrexone, naltrexone], the “ethanol consumption in animal studies” value (animals) is listed as “decrease”.

For `C[C@@H]1C[C@@H]([C@H](O)CC2CC(=O)NC(=O)C2)C(=O)[C@@H](C)C1` [cycloheximide, reference compound], the “ethanol-mediated increases in TH protein levels” value ([2]; 100 mM ethanol 24 h, 30 μg/ml CHX for the last 12 h) was “did not inhibit”.

For `CCO` [ethanol], the “association of TH with Hsp90” value (TH-Hsp90 association) was “induced”, the “immunoreactivity of TH” value ([2]; 10 mM ethanol, 24 h) was “significant increase” and the “duration of ethanol-induced increase in TH protein levels” value ([2]; 100 mM ethanol 24 h, detected 24 h after ethanol washout) was “long-lasting”. For the same molecule, the TH protein levels ([2]; 100 mM ethanol, after 24 h and 48 h of exposure) was “increase”, the “increase in TH protein levels, dependence on ethanol concentration” value ([2]; different concentrations of ethanol, 24 h) was “dose-dependent manner” and the “quantity of 35S-labeled TH protein at all points in the chase time course” value ([3]; 100 mM ethanol 24 h before pulse-chase, compared to control) was “increase”. For the same molecule, the “association between Akt kinase and Hsp90” value [4] was “did not alter”, the “protein level of Hsp90” value (Hsp90; 100 mM ethanol alone, 12 h or 24 h) was “did not alter” and the “TH mRNA” value (TH mRNA) was “did not increase”.

For ibogaine [reference compound], the “ethanol induced increases in TH levels” value ([2]; 100 mM ethanol 24 h, 10 μM ibogaine added for the last 12 h) is given as “inhibited” and the GDNF gene expression (GDNF gene expression) is given as “increases”.

B1: GDNF: Recombinant human GDNF polypeptide (glial cell line derived neurotropic factor) from R&D Systems (protein, UniProt P39905 78-211, looked up)
Glial cell line-derived …: SPDKQMAVLPRRERNRQAAAANPENSRGKGRRGQRGKNRGCVLTAIHLNVTDLGLGYETKEELIFRYCSGSCDAAETTYDKILKNLSRNRRLVSDKVGQACCRPIAFDDDLSFLDDNLVYHILRKHSAKRCGCI
For B1, the “ethanol-mediated association of Hsp90 with TH” value (TH-Hsp90 association; 25 ng/ml GDNF added for the last 12 h) was “reversed”, the “ethanol-mediated increase in TH levels” value [2, 5] was “reversed” and the “quantity of 35S-labeled TH at all points on the chase time course” value [3, 5] was “downregulates”. For the same molecule, the Hsp90 immunoreactivity (Hsp90; [5]) was “not due to alteration”.
